Data published in PubChem BioAssay AID1963828 (Molecular Pharmacology Branch, DTP, NCI, 2024).

Tested on: 991263-137-R1-J2-PDC complex spheroid viability
Assay: Anticancer human tumor 991263-137-R1-J2-PDC patient-derived colon adenocarcinoma cell line growth inhibition [POLQ]
Details: for IC50: curve of first compound; for viability, T/C: stronger effect = lower value
How it was run: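 Patient-derived tumour cells were co-cultured with HUVEC and mesenchymal stem cells as multicellular spheroids at 37 °C. They were treated with POLQ inhibitors (novobiocin, ART-558, RP6685) alone or combined with other agents. Top concentrations were at or near clinical Cmax (otherwise 10 microM; SN-38 at 1 microM), decreasing in half-log steps.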

[1] = second compound 0.0316 µM, first compound 0.0316 µM
[2] = second compound 0.0316 µM, first compound 0.1 µM
[3] = second compound 0.0316 µM, first compound 0.316 µM
[4] = second compound 0.0316 µM, first compound 1 µM
[5] = second compound 0.0316 µM, first compound 3.16 µM
[6] = second compound 0.0316 µM, first compound 10 µM
[7] = second compound 0.1 µM, first compound 0.0316 µM
[8] = second compound 0.1 µM, first compound 0.1 µM
[9] = second compound 0.1 µM, first compound 0.316 µM
[10] = second compound 0.1 µM, first compound 1 µM
[11] = second compound 0.1 µM, first compound 3.16 µM
[12] = second compound 0.1 µM, first compound 10 µM
[13] = second compound 0.316 µM, first compound 0.0316 µM
[14] = second compound 0.316 µM, first compound 0.1 µM
[15] = second compound 0.316 µM, first compound 0.316 µM
[16] = second compound 0.316 µM, first compound 1 µM
[17] = second compound 0.316 µM, first compound 3.16 µM
[18] = second compound 0.316 µM, first compound 10 µM
[19] = second compound 1 µM, first compound 0.0316 µM
[20] = second compound 1 µM, first compound 0.1 µM
[21] = second compound 1 µM, first compound 0.316 µM
[22] = second compound 1 µM, first compound 1 µM
[23] = second compound 1 µM, first compound 3.16 µM
[24] = second compound 1 µM, first compound 10 µM
[25] = second compound 3.16 µM, first compound 0.0316 µM
[26] = second compound 3.16 µM, first compound 0.1 µM
[27] = second compound 3.16 µM, first compound 0.316 µM
[28] = second compound 3.16 µM, first compound 1 µM
[29] = second compound 3.16 µM, first compound 3.16 µM
[30] = second compound 3.16 µM, first compound 10 µM
[31] = second compound 10 µM, first compound 0.0316 µM
[32] = second compound 10 µM, first compound 0.1 µM
[33] = second compound 10 µM, first compound 0.316 µM
[34] = second compound 10 µM, first compound 1 µM
[35] = second compound 10 µM, first compound 3.16 µM
[36] = second compound 10 µM, first compound 10 µM
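Further: spheroids exposed to compounds for 7 days before readout.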
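Wherever viability, T/C is given: 100% = DMSO vehicle control viability.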

With `C#Cc1c(F)ccc2cc(O)cc(-c3ncc4c(N5CC6CCC(C5)N6)nc(OCC56CCCN5CC(F)C6)nc4c3F)c12` (centres undefined) + COC1C(OC(N)=O)C(O)C(Oc2ccc3c(O)c(NC(=O)c4ccc(O)c(CC=C(C)C)c4)c(=O)oc3c2C)OC1(C)C the IC50 (second compound 0.0316 µM) was greater than 10 µM, the IC50 (second compound 0.1 µM) was greater than 10 µM and the IC50 (second compound 0.316 µM) was greater than 10 µM. For the same molecule, the IC50 (second compound 1 µM) was greater than 10 µM, the IC50 (second compound 3.16 µM) was greater than 10 µM and the IC50 (second compound 10 µM) was greater than 10 µM. For the same molecule, the viability, T/C [1] was 103%, the viability, T/C [2] was 107% and the viability, T/C [3] was 105%. For the same molecule, the viability, T/C [4] was 109%, the viability, T/C [5] was 108% and the viability, T/C [6] was 95.1%. The viability, T/C [7] was 103%, the viability, T/C [8] was 106% and the viability, T/C [9] was 99.4%. The viability, T/C [10] was 88.2%, the viability, T/C [11] was 116% and the viability, T/C [12] was 104%. It also gave a viability, T/C [13] of 98.9%, a viability, T/C [14] of 120% and a viability, T/C [15] of 118%. It also gave a viability, T/C [16] of 91.5%, a viability, T/C [17] of 114% and a viability, T/C [18] of 92.7%. It also gave a viability, T/C [19] of 95.4%, a viability, T/C [20] of 113% and a viability, T/C [21] of 112%. The viability, T/C [22] was 107%, the viability, T/C [23] was 117% and the viability, T/C [24] was 90.6%. It also gave a viability, T/C [25] of 104%, a viability, T/C [26] of 123% and a viability, T/C [27] of 122%. For the same molecule, the viability, T/C [28] was 121%, the viability, T/C [29] was 109% and the viability, T/C [30] was 104%. It also gave a viability, T/C [31] of 102%, a viability, T/C [32] of 102% and a viability, T/C [33] of 102%. The viability, T/C [34] was 110%, the viability, T/C [35] was 102% and the viability, T/C [36] was 91.6%.
Molecule `CCc1cc2c(N3CCc4c(cc(Cn5ccnc5)cc4-c4cn(C)nc4C(F)(F)F)C3=O)cc(C)nc2c(OC)n1` + COC1C(OC(N)=O)C(O)C(Oc2ccc3c(O)c(NC(=O)c4ccc(O)c(CC=C(C)C)c4)c(=O)oc3c2C)OC1(C)C has an IC50 (second compound 0.0316 µM) greater than 10 µM, an IC50 (second compound 0.1 µM) greater than 10 µM and an IC50 (second compound 0.316 µM) greater than 10 µM. For the same molecule, the IC50 (second compound 1 µM) was greater than 10 µM, the IC50 (second compound 3.16 µM) was greater than 10 µM and the IC50 (second compound 10 µM) was greater than 10 µM. For the same molecule, the viability, T/C [1] was 108%, the viability, T/C [2] was 89.5% and the viability, T/C [3] was 103%. It also gave a viability, T/C [4] of 91.4%, a viability, T/C [5] of 100% and a viability, T/C [6] of 79.9%. It also gave a viability, T/C [7] of 109%, a viability, T/C [8] of 117% and a viability, T/C [9] of 102%. It also gave a viability, T/C [10] of 89.1%, a viability, T/C [11] of 106% and a viability, T/C [12] of 101%. For the same molecule, the viability, T/C [13] was 99.6%, the viability, T/C [14] was 113% and the viability, T/C [15] was 95.9%. It also gave a viability, T/C [16] of 92.2%, a viability, T/C [17] of 100% and a viability, T/C [18] of 88.9%. For the same molecule, the viability, T/C [19] was 97.4%, the viability, T/C [20] was 93.8% and the viability, T/C [21] was 81.1%. The viability, T/C [22] was 95.8%, the viability, T/C [23] was 106% and the viability, T/C [24] was 82.2%. It also gave a viability, T/C [25] of 105%, a viability, T/C [26] of 113% and a viability, T/C [27] of 101%. It also gave a viability, T/C [28] of 102%, a viability, T/C [29] of 102% and a viability, T/C [30] of 86.1%. For the same molecule, the viability, T/C [31] was 95.4%, the viability, T/C [32] was 104% and the viability, T/C [33] was 89.8%. The viability, T/C [34] was 105%, the viability, T/C [35] was 86.4% and the viability, T/C [36] was 89.4%.
